Measured values from patent US20070135412A1, “Compounds for the treatment of ocular dryness caused by photorefractive surgery” (priority 2003, published 2007).

How the values were obtained:
[1] = tested on: fibres innervating the cornea (polymodal nociceptive fibres); assay: Extracellular recording of corneal nerve fibres in cats with a corneal wound, before and after topical drug application; type: in vivo, cat; conditions: anaesthetized cats 7 and 15 days after circular corneal wound; for responses evoked by pulses of CO2 of 30 s duration: 98% CO2 on receptor field around the lesion, before vs after topical application (same concentration ranges); for spontaneous activity of the fibres innervating the zones around the lesion: before vs after topical application (carbamazepine 0.001-0.01%, phenyloin 0.001-0.1%, mexiletine 0.001-0.1%, lidocaine 0.0005-0.01%, tocaidine 0.001-0.01%)
Description: Tests were carried out on fifteen adult cats of both sexes, anaesthetized with pentobarbital sodium (Nembutal, 40 mg/kg, i.p.). The cornea of both eyes was anaesthetized topically by instillation of tetracaine 0.1% and oxybuprocaine hydrochloride 0.4%.
A circular wound was made in the centre of the cornea with a 5 mm dia. trepan which penetrated 40-50 μm below the Bowman membrane. The animals were treated with topical and systemic antibiotics, leaving them to recover for 1-2 weeks.
The recording tests were carried out 7 and 15 days after surgery. The animals were anaesthetized with Nembutal (40 mg/kg, i.p.) and were maintained in a state of areflexia during the experiment by intravenous infusion of dilute Nembutal (5 mg/kg) in the saphenous vein. The animals breathed spontaneously through a tracheal cannula. Respiratory CO2, rectal temperature and arterial pressure were monitored continuously and were kept stable. The animals were sacrificed with an overdose of Nembutal at the end of the experiment.
Extracellular recording was made of nerve fibres isolated from the cornea, obtained from the ciliary nerves of the eye, using silver/silver chloride electrodes and conventional electrophysiological equipment, as described previously (cf. Belmonte, C., Gallar, J., Pozo, M. A., Rebollo, I. (1991) Excitation by irritant chemical substances of sensory afferent units in the cat's cornea. J. Physiol. 437: 709-725).
The corneal sensory fibres were identified by their response to mild stimulation with a wet brush. The mechanical threshold was measured with a Cochet-Bonnet aesthesiometer with a No. 12 filament (0.1-1.9 mN) and with calibrated von Frey hairs (0.002-2.0 N). The receptor fields were mapped with a suprathreshold force hair. Sensitivity to chemical stimuli was investigated by applying a pulse of gas containing 98% CO2 at a flow rate of 80 ml/min on the receptor field for 30 s.
The conduction velocity was measured by observing the latency to electric shocks (0.1-0.5 ms, 0.5-3.0 mA) applied on the receptor field with a pair of silver electrodes 3-5 mm apart. The conduction distance was estimated with a silk thread of 0.8 G positioned on the path of the nerve.
The nerve discharges and the stimulation pulses were recorded on an FM magnetic tape recorder for off-line computer analysis with suitable software (CED 1401plus and Spike2 for Windows). The spontaneous activity (average discharge frequency in pulses per second) and the changes in discharge caused by the various stimuli were measured.
The fibres were classified as peripheral and central according to the localization of their receptor field. […] Depending on the localization of the receptor field the fibres were classified as far from the wound or close to or bordering on the wound. The control data were obtained from intact corneas.
The response of the polymodal nociceptive fibres to chemical stimulation was investigated in the fibres whose receptor field touched the damaged area and in those whose receptor field was outside of and far from the lesion. The spontaneous activity and the discharge of the fibres in response to stimulation with CO2 were measured before and after topical application of carbamazepine (0.001-0.01%), phenyloin (5,5-diphenylhydantoin) (0.001-0.1%), mexiletine (0.001-0.1%), lidocaine (0.0005-0.01%) and tocaidine (0.001-0.01%).

[2] = tested on: sensations of ocular dryness that appear after photorefractive surgery of the LASIK type; assay: Clinical study of topical carbamazepine versus placebo on ocular dryness after LASIK surgery; type: in vivo, human; conditions: ophthalmic solution at 0.01%, one drop in the operated eye twice a day for 14 days after LASIK
Description: A clinical study was carried out for comparing the attenuating effect produced by the topical administration of carbamazepine and of a placebo on the sensations of ocular dryness that appear after photorefractive surgery of the LASIK type. The study included 124 subjects, men and women in the age range 21-45 years, who underwent routine, elective, unilateral LASIK surgery for correction of myopia. The carbamazepine was administered in ophthalmic solution at 0.01%. After surgery, the subjects received one drop of the study medication in the operated eye, twice a day for 14 consecutive days. Postoperative examinations were carried out on days 1, 3, 7 and 14. The efficacy of the treatment was assessed by measuring the sensation of ocular dryness, pain intensity, and the overall analgesic efficacy, employing independent visual-analogy scales. The symptoms of eye inflammation, burning/stinging sensations, lacrimation etc. were also recorded.

| SMILES | responses evoked by pulses of CO2 of 30 s duration [1] | spontaneous activity of the fibres innervating the zones around the lesion [1] | incidence of symptoms of dryness throughout the day [2] | incidence of the symptoms of ocular dryness ([2]; statistically significant) |
| --- | --- | --- | --- | --- |
| CCN(CC)CC(=O)Nc1c(C)cccc1C [lidocaine] | dose-dependent decrease | dose-dependent decrease |  |  |
| Cc1cccc(C)c1OCC(C)N (stereo not drawn) [mexiletine] | dose-dependent decrease | dose-dependent decrease |  |  |
| Cc1cccc(C)c1NC(=O)C(C)N (stereo not drawn) [tocaidine] | dose-dependent decrease | dose-dependent decrease |  |  |
| NC(=O)N1c2ccccc2C=Cc2ccccc21 [carbamazepine] | dose-dependent decrease | dose-dependent decrease | significantly lower | more reduced incidence |
| O=C1NC(=O)C(c2ccccc2)(c2ccccc2)N1 [phenyloin, 5,5-diphenylhydantoin] | dose-dependent decrease | dose-dependent decrease |  |  |
